Assay results as given in patent US9376425B2, “Heterocyclic compounds as MDM2 inhibitors for the treatment of cancer” (AMGEN INC., priority 2011, dated 2016).
pIC50: −log10 of the molar value.

Biological target: T1, human MDM2 (GST-hMDM2 aa 1-188), interaction with biotinylated-p53 (aa 1-83) (Homo sapiens, UniProt Q00987)
T1 construct: Amino acid residues 1-188 of human MDM2 were expressed; made in house; host or cells: Escherichia coli
Experiment: Homogenous Time-Resolved Fluorescence Assay (HTRF1 assay), inhibition of HDM2-p53 interaction
Assay type: binding
Settings: 2.5 nM GST-hMDM2, 5 nM biotinylated-p53, 200 mM KF
Protocol: Homogenous Time-Resolved Fluorescence Assay (HTRF1 Assay)
Residues 1-83 of human p53 were expressed as an amino-terminal AviTag™-TrxA-6xHis fusion protein (biotinylated p53) in E. coli. Each protein was purified from cell paste by affinity chromatography.
Specifically, 10 uL of GST-hMDM2 was incubated with 10 ul of diluted compound (various concentrations, serially diluted) in 10% DMSO for 20 minutes at room temperature. 20 uL of biotinylated-p53 was added to the GST-hMDM2+ compound mixture, and then incubated at room temperature for 60 min. 10 uL of detection buffer consisting of SA-XLent, anti-GST cryptate antibody and KF was added to GST-hMDM2, biotinylated-p53 and compound reaction and left at room temperature to reach equilibrium for >4 hrs. The final concentration of DMSO in the reaction was 2%. Time-resolved fluorescence readings were measured on a microplate multilabel reader. Percentage of inhibition was calculated relative to nutlin-3.

T1 sequence (Q00987 1-188): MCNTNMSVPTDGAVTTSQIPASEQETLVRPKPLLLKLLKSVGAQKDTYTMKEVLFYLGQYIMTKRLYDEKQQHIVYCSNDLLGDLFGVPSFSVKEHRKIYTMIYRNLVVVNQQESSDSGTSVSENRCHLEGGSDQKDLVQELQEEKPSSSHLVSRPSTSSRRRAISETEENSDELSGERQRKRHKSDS

| Structure (SMILES) | pIC50 |
| --- | --- |
| O=C(O)C[C@@H]1O[C@H](c2cccc(Cl)c2)[C@@H](c2ccc(C(F)(F)F)cc2)N(CC2CC2)C1=O [Example 57, 2-((2S,5R,6R)-6-(3-Chlorophenyl)-4-(cyclopropylmethyl)-3-oxo-5-(4-(trifluoromethyl)phenyl)morpholin-2-yl)acetic acid] | 6.10 |
| CC[C@H](C(=O)OC(C)(C)C)N1C(=O)[C@H](CC(=O)O)O[C@H](c2cccc(Cl)c2)[C@H]1c1ccc(Cl)cc1 (single isomer, unassigned) [Example 30] | 5.74 |
| O=C(O)CC1O[C@H](c2cc(Cl)cc(Cl)c2)[C@@H](c2ccc(Cl)cc2)N(CC2CC2)C1=O (single isomer, unassigned) [Example 93] | 6.52 |
| C[C@H](C1CCC1)N1C(=O)[C@@H](CC(=O)O)O[C@H](c2cccc(Cl)c2)[C@H]1c1ccc(Cl)cc1 [Example 20, 2-((2R,5R,6R)-6-(3-Chlorophenyl)-5-(4-chlorophenyl)-4-((R)-1-cyclobutylethyl)-3-oxomorpholin-2-yl)acetic acid] | 6.52 |
| C[C@@H](C1CCC1)N1C(=O)[C@H](CC(=O)O)O[C@H](c2cccc(Cl)c2)[C@H]1c1ccc(Cl)cc1 [Example 23, 2-((2S,5R,6R)-6-(3-Chlorophenyl)-5-(4-chlorophenyl)-4-((S)-1-cyclobutylethyl)-3-oxomorpholin-2-yl)acetic acid] | 6.52 |
| COc1cccc([C@H]2OC(CC(=O)O)C(=O)N(CC3CC3)[C@@H]2c2ccc(Cl)cc2)c1 (single isomer, unassigned) [Example 90] | 5.46 |
| O=C(O)CC1O[C@H](c2cc(Cl)cc(Br)c2)[C@@H](c2ccc(Cl)cc2)N(CC2CC2)C1=O (single isomer, unassigned) [Example 105] | 6.52 |
| C=CCN1C(=O)[C@@H](CC(=O)O)O[C@H](c2cccc(Cl)c2)[C@H]1c1ccc(Cl)cc1 [Example 46, 2-((2R,5R,6R)-4-Allyl-6-(3-chlorophenyl)-5-(4-chlorophenyl)-3-oxomorpholin-2-yl)acetic acid] | 6.10 |
| CCC(CC)N1C(=O)[C@H](CC(=O)O)O[C@H](c2cccc(Cl)c2)[C@H]1c1ccc(Cl)cc1 [Example 53, 2-((2S,5R,6R)-6-(3-Chlorophenyl)-5-(4-chlorophenyl)-3-oxo-4-(pentan-3-yl)morpholin-2-yl)acetic acid] | 7.00 |
| C[C@H](C1CCCCC1)N1C(=O)[C@H](CC(=O)O)O[C@H](c2cccc(Cl)c2)[C@H]1c1ccc(Cl)cc1 (single isomer, unassigned) [Example 18, 2-((2S,5R,6R)-6-(3-chlorophenyl)-5-(4-chlorophenyl)-4-((R)-1-cyclohexylethyl)-3-oxomorpholin-2-yl)acetic acid or 2-((2S,5R,6R)-6-(3-Chlorophenyl)-5-(4-chlorophenyl)-4-((S)-1-cyclohexylethyl)-3-oxomorpholin-2-yl)acetic acid] | 7.00 |
| O=C(O)CC1O[C@H](c2cccc(F)c2)[C@@H](c2ccc(Cl)cc2)N(CC2CC2)C1=O (single isomer, unassigned) [Example 85] | 5.80 |
| O=C(O)C[C@H]1O[C@H](c2cccc(Cl)c2)[C@@H](c2ccc(Cl)cc2)NC1=O [Example 35, 2-((2R,5R,6R)-6-(3-Chlorophenyl)-5-(4-chlorophenyl)-3-oxomorpholin-2-yl)acetic acid] | 4.89 |
| Cc1ccc([C@@H]2[C@@H](c3cccc(Cl)c3)O[C@H](CC(=O)O)C(=O)N2CC2CC2)cc1 [Example 61, 2-((2R,5R,6R)-6-(3-Chlorophenyl)-4-(cyclopropylmethyl)-3-oxo-5-(p-tolyl)morpholin-2-yl)acetic acid] | 6.22 |
| O=C(O)C[C@@H]1O[C@H](c2cc(Cl)cc(-c3cncnc3)c2)[C@@H](c2ccc(Cl)cc2)N(CC2CC2)C1=O (single isomer, unassigned) [Example 109] | 5.55 |
| O=C(O)C[C@@H]1O[C@H](c2cccc(Cl)c2)[C@@H](c2ccc(Cl)cc2)NC1=O [Example 34, 2-((2S,5R,6R)-6-(3-Chlorophenyl)-5-(4-chlorophenyl)-3-oxomorpholin-2-yl)acetic acid] | 4.60 |
| O=C1[C@@H](Cc2nnn[nH]2)O[C@H](c2cccc(Cl)c2)[C@@H](c2ccc(Cl)cc2)N1CC1CC1.O=C1[C@H](Cc2nnn[nH]2)O[C@H](c2cccc(Cl)c2)[C@@H](c2ccc(Cl)cc2)N1CC1CC1 (mixture of isomers) [Example 50, (2S,5R,6R)-6-(3-Chlorophenyl)-5-(4-chlorophenyl)-4-(cyclopropylmethyl)-2-((tetrazol-5-yl)methyl)morpholin-3-one and (2R,5R,6R)-6-(3-Chlorophenyl)-5-(4-chlorophenyl)-4-(cyclopropylmethyl)-2-((tetrazol-5-yl)methyl)morpholin-3-one] | 6.15 |

| Structure (SMILES) | pIC50 |
| --- | --- |
| O=C(O)CC1O[C@H](c2cccc(Cl)c2)[C@@H](c2ccc(Cl)cc2Br)N(CC2CC2)C1=O (single isomer, unassigned) [Example 80] | 4.83 |
| O=C(O)C[C@@H]1O[C@H](c2cccc(Cl)c2)[C@@H](c2ccc(Cl)cc2F)N(CC2CC2)C1=O [Example 54, 2-((2S,5R,6R)-5-(4-Chloro-2-fluorophenyl)-6-(3-chlorophenyl)-4-(cyclopropylmethyl)-3-oxomorpholin-2-yl)acetic acid] | 6.22 |
| O=C(O)C[C@@H]1O[C@H](c2cccc(Cl)c2)[C@@H](c2ccc(Cl)cc2)N(CC2CCCC2)C1=O [Example 29, 2-((2S,5R,6R)-6-(3-Chlorophenyl)-5-(4-chlorophenyl)-4-(cyclopentylmethyl)-3-oxomorpholin-2-yl)acetic acid] | 6.52 |
| C[C@@H](C1CCCCC1)N1C(=O)[C@H](CC(=O)O)O[C@H](c2cccc(Cl)c2)[C@H]1c1ccc(Cl)cc1 (single isomer, unassigned) [Example 19, 2-((2S,5R,6R)-6-(3-chlorophenyl)-5-(4-chlorophenyl)-4-((S)-1-cyclohexylethyl)-3-oxomorpholin-2-yl)acetic acid or 2-((2S,5R,6R)-6-(3-chlorophenyl)-5-(4-chlorophenyl)-4-((R)-1-cyclohexylethyl)-3-oxomorpholin-2-yl)acetic acid] | 6.22 |
| C[C@@H](C1CCC1)N1C(=O)[C@@H](CC(=O)O)O[C@H](c2cccc(Cl)c2)[C@H]1c1ccc(Cl)cc1 [Example 22, 2-((2R,5R,6R)-6-(3-Chlorophenyl)-5-(4-chlorophenyl)-4-((S)-1-cyclobutylethyl)-3-oxomorpholin-2-yl)acetic acid] | 6.30 |
| O=C(O)CC1O[C@H](c2cccc(Cl)c2)[C@@H](c2ccc(Br)cc2)N(CC2CC2)C1=O (single isomer, unassigned) [Example 67] | 4.76 |
| CCN1C(=O)[C@@H](CC(=O)O)O[C@H](c2cccc(Cl)c2)[C@H]1c1ccc(Cl)cc1 [Example 44, 2-((2R,5R,6R)-6-(3-Chlorophenyl)-5-(4-chlorophenyl)-4-ethyl-3-oxomorpholin-2-yl)acetic acid] | 6.05 |
| O=C(O)C[C@@H]1O[C@H](c2cccc(Cl)c2)[C@@H](c2cc3ccccc3[nH]2)N(CC2CC2)C1=O (single isomer, unassigned) [Example 2, 2-((2S,5R,6R)-6-(3-Chlorophenyl)-4-(cyclopropylmethyl)-5-(1H-indol-2-yl)-3-oxomorpholin-2-yl)acetic acid or 2-((2R,5R,6R)-6-(3-Chlorophenyl)-4-(cyclopropylmethyl)-5-(1H-indol-2-yl)-3-oxomorpholin-2-yl)acetic acid] | 4.50 |
| Cn1c([C@@H]2[C@@H](c3cccc(Cl)c3)O[C@H](CC(=O)O)C(=O)N2CC2CC2)nc2ccccc21.Cn1c([C@H]2[C@H](c3cccc(Cl)c3)O[C@@H](CC(=O)O)C(=O)N2CC2CC2)nc2ccccc21 (mixture of isomers) [Example 6, 2-((2R,5R,6R)-6-(3-Chlorophenyl)-4-(cyclopropylmethyl)-5-(1-methyl-1H-benzo[d]imidazol-2-yl)-3-oxomorpholin-2-yl)acetic acid and 2-((2S,5S,6S)-6-(3-Chlorophenyl)-4-(cyclopropylmethyl)-5-(1-methyl-1H-benzo[d]imidazol-2-yl)-3-oxomorpholin-2-yl)acetic acid] | 4.33 |
| O=C(O)C[C@H]1O[C@H](c2cccc(Cl)c2)[C@@H](c2ccc(Cl)cc2)N(CC2CCCC2)C1=O [Example 28, 2-((2R,5R,6R)-6-(3-Chlorophenyl)-5-(4-chlorophenyl)-4-(cyclopentylmethyl)-3-oxomorpholin-2-yl)acetic acid] | 6.30 |
| O=C(O)CC1O[C@H](c2cccc(Cl)c2)[C@@H](c2ccc(Cl)c(F)c2)N(CC2CC2)C1=O (single isomer, unassigned) [Example 78] | 6.10 |
| COc1ccc([C@@H]2[C@@H](c3cccc(Cl)c3)OC(CC(=O)O)C(=O)N2CC2CC2)cn1 (single isomer, unassigned) [Example 73] | 4.94 |
| CC(C)c1ccc([C@@H]2[C@@H](c3cccc(Cl)c3)O[C@H](CC(=O)O)C(=O)N2CC2CC2)cc1 [Example 66, 2-((2R,5R,6R)-6-(3-Chlorophenyl)-4-(cyclopropylmethyl)-5-(4-isopropylphenyl)-3-oxomorpholin-2-yl)acetic acid] | 4.87 |
| COc1ccc([C@@H]2[C@@H](c3cccc(Cl)c3)OC(CC(=O)O)C(=O)N2CC2CC2)cc1 (single isomer, unassigned) [Example 75] | 5.43 |
| O=C(O)CC1O[C@H](c2cc(F)cc(Cl)c2)[C@@H](c2ccc(Cl)cc2)N(CC2CC2)C1=O (single isomer, unassigned) [Example 83] | 6.52 |
